Test results: patent US9717708B1, “Process for preparing ertapenem-containing lyophilized formulation” (DAEWOONG PHARMACEUTICAL CO., LTD., priority 2014, dated 2017)

Columns and labels:
[1] = Purity (HPLC) before and after lyophilization and during storage, lyophilized formulation containing doripenem monohydrate; format: physicochemical; conditions: lyophilized formulations containing doripenem
Experimental: (§1) Hydroxypropyl β-cyclodextrin (HP-β-CD) [MS=0.65, 2.76 g (1.0 eq.)] was dissolved in distilled water (16 mL). After cooling the solution to 0˜5° C., 10 portions of ertapenem monosodium salt (1 g in total, each portion having the same amount) were sequentially added to the solution for 60 minutes, while maintaining pH 7.8 with a 2N NaOH solution. The resulting solution was sterile-filtered at 0˜5° C., filled in a vial, and then lyophilized as follows: The filled vial was located on the shelf of a lyophilizer pre-cooled to −40° C. and then cooled for 3 hours. Vacuum (80 mTorr) was applied to the shelf, which was then heated to −20° C. at the rate of 0.5° C./min. The shelf was maintained under the conditions of −20° C. and 80 mTorr for 48 hours. The shelf was heated to 10° C. at the rate of 0.1° C./min and then to 40° C. at the rate of 0.5° C./min. […]
(§2) We evaluated whether or not hydroxypropyl β-cyclodextrin can also function both as a cryoprotective agent and as a stabilizing agent in the lyophilized formulations containing carbapenem antibiotics other than ertapenem. […] The purities before the lyophilization, the purities right after the lyophilization, and the purities of the lyophilized formulations which were respectively stored at low temperature (−20° C.), at room temperature, and under the accelerated (40° C., RH75%) condition for 4 weeks were respectively measured with a HPLC. […]

[2] = Purity (HPLC) before and after lyophilization and during storage, lyophilized formulation containing meropenem trihydrate; format: physicochemical; conditions: lyophilized formulations containing meropenem
Experimental: as §1, §2

Row | Compound | function of hydroxypropyl β-cyclodextrin as cryoprotective and stabilizing agent [1] | function of hydroxypropyl β-cyclodextrin as cryoprotective and stabilizing agent [2]
1 | C[C@@H](O)[C@H]1C(=O)N2C(C(=O)O)=C(S[C@@H]3CN[C@H](CNS(N)(=O)=O)C3)[C@H](C)[C@H]12 [doripenem, doripenem monohydrate] | did not function as a cryoprotective agent nor as a stabilizing agent | 
2 | C[C@@H](O)[C@H]1C(=O)N2C(C(=O)O)=C(S[C@@H]3CN[C@H](C(=O)N(C)C)C3)[C@H](C)[C@H]12 [meropenem, meropenem trihydrate] |  | did not function as a cryoprotective agent nor as a stabilizing agent
